Measured values from patent US11268064B2, “Lactobacillus rhamnosus RHT-3201 conjugated to polysaccharide polymer binder, and use thereof for prevention or treatment of atopic diseases” (IL DONG PHARMACEUTICAL CO., LTD., priority 2014, dated 2022).

Tests used:
[1] = system: severe atopic dermatitis-induced NC/Nga mice; test: Severe atopic dermatitis model, SCORAD evaluation; format: in vivo; conditions: baseline, before treatment with test materials; positive control group
Procedure: RHT-3201 according to the present invention was used as a test material, while steroid-based dexamethasone (Sigma Co. Ltd), which is used as a main therapeutic agent for severe atopic dermatitis, was used as a positive control. An extract of Dermatophagoides farina, which is a major species of house dust mite, was used as an atopy inducing material. The extract was purchased in an ointment form from Central Lab. Animal Inc.
The dexamethasone was prepared by being dissolved in ethanol into a concentration of 0.1% (w/v), and RHT-3201 of the present invention was prepared by being dissolved in distilled water to doses of 1×10^8 CFU/0.5 ml/mouse, 1×10^9 CFU/0.5 ml/mouse, and 1×10^10 CFU/0.5 ml/mouse, respectively. […]
In the present evaluation, the severity of atopic dermatitis was expressed as a total of evaluation scores of five items, using SCORAD (SCORing Atopic Dermatitis), which is a generally used method for clinical macroscopic evaluation. […] The scores for the five items (no symptom (score 0), mild symptom (score 1), moderate symptom (score 2), severe symptom (score 3) for each item) were added up, while the evaluation score was determined between the lowest score of 0 (a state in which there is no symptom) and the highest score of 15 (a state in which the symptoms for all items were severe). The severity of the mouse skin lesions was evaluated every week (see FIG. 6). […]

[2] = Body weight measurement during administration; format: in vivo, NC/Nga mice; conditions: administration during eight weeks; dexamethasone transdermal, RHT-3201 oral (FIG. 9)
Procedure: The dexamethasone was prepared by being dissolved in ethanol into a concentration of 0.1% (w/v), and RHT-3201 of the present invention was prepared by being dissolved in distilled water to doses of 1×10^8 CFU/0.5 ml/mouse, 1×10^9 CFU/0.5 ml/mouse, and 1×10^10 CFU/0.5 ml/mouse, respectively. All the samples to be administered were prepared on the testing day. The dexamethasone was coated on the skin of a testing subject at 100 μl for each subject twice a week, while RHT-3201 according to the present invention was orally administered at 0.5 ml for each subject using a mouse zonde once a day. Distilled water was administered for a normal group and an atopy control group. The administration was conducted for 8 weeks in all the test groups.
The number of scratching behaviors for 15 minutes was counted once a week from week 1 of administration of a test drug. Only the number of scratching behaviors using a hind leg was counted in order to avoid counting scratching behaviors due to the other causes besides scratching behaviors due to pruritus. Meanwhile, the weight loss tends to occur due to side effects of drugs and stress at the time of inducing severe atopic dermatitis. In order to investigate whether the side effect of weight loss occurs by the test materials of the present invention, the test animals were weighed during the administration period of the test materials.

C[C@@H]1C[C@H]2[C@@H]3CCC4=CC(=O)C=C[C@]4(C)[C@@]3(F)[C@@H](O)C[C@]2(C)[C@@]1(O)C(=O)CO [Dexamethasone, dexamethasone]
Severe atopic dermatitis score Mean ± SE (n = 6) [1]: 10.8 ± 0.4 | change in body weight [2]: weight loss for 4 weeks
